The source of these data is US9951052B2, “Inhibitors of the renal outer medullary potassium channel” (Merck Sharp & Dohme Corp., priority 2013, dated 2018).

This test has as its target T1, hROMK (hKir1.1) (Homo sapiens, UniProt P48048).
T1 construct: expressed in transfected cells
T1 sequence (P48048 1-391): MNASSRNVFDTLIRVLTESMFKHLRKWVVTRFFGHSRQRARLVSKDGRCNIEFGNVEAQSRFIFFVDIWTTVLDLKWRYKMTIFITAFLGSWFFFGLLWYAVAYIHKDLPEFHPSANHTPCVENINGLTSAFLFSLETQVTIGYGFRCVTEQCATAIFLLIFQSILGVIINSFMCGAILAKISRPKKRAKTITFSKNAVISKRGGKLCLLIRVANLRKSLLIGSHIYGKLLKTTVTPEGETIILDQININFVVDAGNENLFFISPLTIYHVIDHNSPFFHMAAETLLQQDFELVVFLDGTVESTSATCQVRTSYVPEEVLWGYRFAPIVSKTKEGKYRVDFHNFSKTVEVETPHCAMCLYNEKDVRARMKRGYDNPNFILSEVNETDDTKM
Description: Thallium Flux Assay (ROMK channel functional thallium flux, FLIPR-Tetra). It is filed as cell-based. The note with it: HEK293 cells stably expressing hROMK (hKir1.1); 30 min incubation with compound; HCl salt run where final product was an HCl salt. An outline of the steps: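 HEK293 cells stably expressing hROMK were FluxOR dye-loaded 90 min, then given compound 30 min at room temperature in probenecid assay buffer with 0.3 mM ouabain. Final 3 mM Tl+/0.3 mM K+ stimulus; fluorescence ([…]) recorded ~10 min. Normalized to 3 μM reference inhibitor for IC50.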

Turning to `Cc1nsc(N(C)C(=O)C2C3CN(C[C@H](O)c4ccc5c(c4C)COC5=O)CC32)n1` (stereo partly drawn) [Example 62, 3-((R)-2-hydroxy-2-(4-methyl-1-oxo-1,3-dihydroisobenzofuran-5-yl)ethyl)-N-methyl-N-(3-methyl-1,2,4-thiadiazol-5-yl)-3-azabicyclo[3.1.0]hexane-6-carboxamide], the IC50 is 170 nM.

For orientation: IC50 means the concentration at which inhibition is half-maximal.
